Experiments:
herpes simplex virus = conditions: in vitro, cultures of herpes simplex virus; cited from earlier work
[1] = test system: mouse leukemia cells L5178-Y; conditions: in vitro and in vivo; cited from earlier work
[2] = test system: L5178y mouse lymphoma cells; assay: L5178y cell growth; assay type: cell-based; conditions: Mus musculus, L5178Y, absence of Avarol
Method: mouse lymphoma cells were grown in roller tube cultures in Eagle's minimum essential medium, supplemented with 10% horse serum (Muller et al., Cancer Res. 39: 1102-1107; 1979 and Muller et al. Cancer Res. 45: 4822-4826; 1985). […] The cell growth was determined by cell count with a computer supported cell-counter (128-channel counter; Cytocomp, system Michaelis: BIOTRON-Medizinelektronik, Mainz; West Germany). The ED50 (±SD) was estimated by logit regression (L. Sachs, […], Springer-Verlag, Berlin 1984). The mathematical evaluation of the fractional inhibitory concentration indices (FIC indices) of Avarol/Avarone-DDC combinations was performed according to published equations and experimental conditions (Muller et al., Cancer Lett. 1: 127-132; 1976; and Phillips et al., Antimicrob. Agents Chemother. 9: 736-740, 1976). […] In this set of experiments, […] cells were incubated with Avarol in the absence or presence of the established SODase inhibitor DDC.

[3] = test system: DTH to oxazolone in NMRI mice; assay: Contact allergy to oxazolone; assay type: in vivo, mouse; conditions: 30 mg/kg per os
Method: Allergic contact dermatitis against oxazolone was produced according to the method of Asherson and Ptak (Immunol. 15: 405-416; 1968) as well as those of Bure and Degrand (Agents and Actions 9: 534; 1979). Male NMRI mice (20-22 g; 10/group) were sensitized with 100 μl of a 2% oxazolone in acetone solution onto the shaved abdomen (day 0). Animals were treated with avarol (i.p.) daily from day -1 to +2 or from day +6 to +8; control group was treated with deoxymethasone (Casella-Hoechst) as a standard per os at a daily dose of 30 mg/kg for the same period of time as for avarol. Seven days after sensitization 10 μl of a 3% oxazolane (this concentration was previously found to give more reproducible results than the lower 2% concentration) solution were topically applied onto the inner side of one ear, whereas the other ear received only acetone. […] Treated groups were compared with controls using the U-test.

In the case of `CC1=CCC[C@H]2[C@](C)(CC3=CC(=O)C=CC3=O)[C@@H](C)CC[C@]12C` [Avarone], the virostatic action (herpes simplex virus) is given as “certain virostatic action in vitro” and the antileukemic action [1] is given as “antileukemic action”.

`CCN(CC)C(=S)S` [DDC, diethyldithiocarbamate, reference compound] gave an inhibition at 1.46 µM ([2]; DDC 1.46 μM) of 26% and an inhibition at 1.71 µM ([2]; DDC 1.71 μM) of 38%.

With `C[C@@H]1C[C@H]2[C@@H]3CCC4=CC(=O)C=C[C@]4(C)[C@@]3(F)[C@@H](O)C[C@]2(C)[C@H]1C(=O)CO` [Deoxymethasone] the “influence on DTH reaction to oxazolone, in words” value ([3]; both schedules) was “significant immunosuppressive influence”, the “24 hours increase in ear thickness” value ([3]; day +6 to +8, control 18.5±3.7) was 10.9 ± 6.1 mg and the “24 hours increase in ear thickness” value ([3]; day -1 to +2, control 22.3±5.6) was 10.2 ± 6.0 mg.

Source: patent US4939177A, “Use of avarol for the control of AIDS and ARC” (Merz + Co. GmbH & Co., priority 1986, dated 1990)
